Calls of active or inactive are those of the source. The calls are words filed in the database; no cut-off is given here. Some results are limits rather than exact numbers.

Data set [1] is described as follows: Toxicity in human DM1-patient derived myotubes at 5 uM.
Data set [2] is filed under the species Homo sapiens. Briefly: Effect on MBNL1 exon 5 splicing patterns in wild type human myotubes at 5 uM by RT-qPCR analysis relative to control. It is filed as functional.
The subject of data set [3] is r(CUG) repeat expansion. Briefly: Induction of r(CUG)exp RNA repeat in human DM1-patient derived myotubes assessed as reduction in number of foci containing r(CUG)exp-MBNL1 foci at 1 uM by RNA fluorescence in situ hybridization assay. It is filed as nucleic-acid assay.
The subject of data set [4] is r(CUG) repeat expansion. Briefly: Induction of wild-type DMPK r(CUG)20 RNA repeat degradation in healthy human myotubes at 5 uM by RT-qPCR analysis relative to control. The format is nucleic-acid assay.
Data set [5] has as its system r(CUG) repeat expansion. Briefly: Induction of r(CUG)10 RNA repeat (unknown origin) degradation at 0.3 to 2.5 uM. The format is nucleic-acid assay.
The species entered for data set [6] is Homo sapiens. Briefly: Effect on alternative splicing of MAP4K4 exon 22a in human DM1-patient derived myotubes at 5 uM by RT-qPCR analysis relative to control. The format is functional.
In data set [7] the test system is r(CUG) repeat expansion. Briefly: Induction of r(CUG)exp RNA repeat in human DM1-patient derived myotubes assessed as improvement in MBNL1 exon 5 splicing defect at 1 uM by RT-qPCR analysis relative to control. The format is nucleic-acid assay.
Data set [8] concerns r(CUG) repeat expansion. Briefly: Induction of r(CUG)10 RNA repeat (unknown origin) degradation at 2.5 uM relative to control. The format is nucleic-acid assay.
A short description of data set [9]: Drug uptake in human DM1-patient derived myotubes by fluorescence based assay. It is filed as ADME. Particulars: in vitro.
The test system of data set [10] is r(CUG) repeat expansion. Briefly: Induction of wild-type DMPK r(CUG)20 RNA repeat degradation in human DM1 patient myotubes at 1 uM by RT-qPCR analysis relative to control. It is filed as nucleic-acid assay.
Data set [11] deals with r(CUG) repeat expansion. Briefly: Induction of MAP3K4 r(CUG)11 RNA repeat degradation in human DM1 patient myotubes at 1 uM by RT-qPCR analysis relative to control. It is filed as nucleic-acid assay.
The test system of data set [12] is r(CUG) repeat expansion. Briefly: Induction of LRP8 r(CUG)11 RNA repeat degradation in human DM1 patient myotubes at 1 uM by RT-qPCR analysis relative to control. The format is nucleic-acid assay.
The subject of data set [13] is r(CUG) repeat expansion. Briefly: Induction of CASK r(CUG)16 RNA repeat degradation in human DM1 patient myotubes at 1 uM by RT-qPCR analysis relative to control. It is filed as nucleic-acid assay.
Data set [14] concerns r(CUG) repeat expansion. Briefly: Induction of r(CUG)exp RNA repeat in human DM1-patient derived myotubes assessed as improvement in MBNL1 exon 5 splicing defect at 5 uM by RT-qPCR analysis relative to control. The format is nucleic-acid assay.
For data set [15], the target named is r(CUG) repeat expansion. Briefly: Binding affinity to r(CUG)12 RNA repeat (unknown origin) by fluorescence based assay. The format is nucleic-acid assay.
Data set [16] concerns r(CUG) repeat expansion. Briefly: Induction of DMPK mRNA 3'-UTR r(CUG)1300 repeat degradation in human DM1 patient-derived myotubes at 1 uM by RT-qPCR analysis relative to control. The format is nucleic-acid assay.
The target of data set [17] is r(CUG) repeat expansion. Briefly: Binding affinity to r(CUG)8 RNA repeat (unknown origin) by fluorescence based assay. The format is nucleic-acid assay.
The subject of data set [18] is r(CUG) repeat expansion. Briefly: Induction of SCUBE2 r(CUG)7 RNA repeat degradation in human DM1 patient myotubes at 1 uM by RT-qPCR analysis relative to control. The format is nucleic-acid assay.
For data set [19], the species on record is Homo sapiens. Briefly: (§1) Induction of DNA damage in human DM1-patient derived myotubes at 1 uM assessed as induction of DNA double strand breaks by measuring gamma-H2AX foci formation by immunofluorescence assay relative to control. The format is functional.
Data set [20] has as its system r(CUG) repeat expansion. Briefly: Induction of SORCS2 r(CUG)7 RNA repeat degradation in human DM1 patient myotubes at 1 uM by RT-qPCR analysis relative to control. It is filed as nucleic-acid assay.
In data set [21] the test system is r(CUG) repeat expansion. Briefly: Induction of DMPK mRNA 3'-UTR r(CUG)1300 repeat degradation in human DM1 patient-derived myotubes at 5 uM by RT-qPCR analysis relative to control. The format is nucleic-acid assay.
Data set [22] is described as follows: as §1. The format is functional.
In data set [23] the test system is r(CUG) repeat expansion. Briefly: Induction of DMPK mRNA 3'-UTR r(CUG)1300 repeat degradation in human DM1 patient-derived myotubes at 0.2 to 5 uM by RT-qPCR analysis relative to control. The format is nucleic-acid assay.
The subject of data set [24] is r(CUG) repeat expansion. Briefly: Induction of r(CUG)exp RNA repeat in human DM1-patient derived myotubes assessed as improvement in MBNL1 exon 5 splicing defect at 0.2 to 5 uM by RT-qPCR analysis relative to control. The format is nucleic-acid assay.

For `CN1CCN(c2ccc3[nH]c(-c4ccc5[nH]c(-c6cccc(OCCCC(=O)N(C)CCCCN(CC(N)=O)C(=O)[C@H](Cc7ccc(O)cc7)NC(=O)[C@H](Cc7ccc(O)cc7)NC(=O)[C@H](Cc7ccc(O)cc7)NC(=O)[C@H](Cc7ccc(O)cc7)NC(=O)CCCOc7cccc(-c8nc9ccc(-c%10nc%11ccc(N%12CCN(C)CC%12)cc%11[nH]%10)cc9[nH]8)c7)c6)nc5c4)nc3c2)CC1`, the Activity entry in data set [1] is given as “Toxic”.
For `Cc1c(N)nc([C@@H](CC(N)=O)NC[C@@H](N)C(N)=O)nc1C(=O)N[C@@H](C(=O)N[C@@H](C)[C@H](O)[C@@H](C)C(=O)N[C@H](C(=O)NCCc1nc(-c2nc(C(=O)NCCCNCCCCNC(=O)CN(CCCCN(C)C(=O)CCCOc3cccc(-c4nc5cc(-c6nc7cc(N8CCN(C)CC8)ccc7[nH]6)ccc5[nH]4)c3)C(=O)[C@H]3CCCN3C(=O)[C@H]3CCCN3C(=O)CCCOc3cccc(-c4nc5ccc(-c6nc7ccc(N8CCN(C)CC8)cc7[nH]6)cc5[nH]4)c3)cs2)cs1)[C@H](C)O)[C@H](O[C@@H]1O[C@@H](CO)[C@@H](O)[C@@H](O)[C@@H]1O[C@H]1O[C@H](CO)[C@@H](O)[C@H](OC(N)=O)[C@H]1O)c1cnc[nH]1`, the result in data set [2], in data set [4], in data set [6], in [10], in data set [11] and in [12] was inactive. Also, the result in [13], in data set [18], in data set [19] and in data set [20] was inactive. The result in data set [3] and in [16] was Active. The Activity entry is “Dose-dependent effect” in data set [5]; 30% in data set [7]; 20% in data set [8]; 50% in data set [14]; 45% in [21]. The Drug uptake result in data set [9] is recorded as “Active”. Further, the EC50 was 280 nM in [15] and greater than 10000 nM in data set [17].
For the compound `Cc1c(N)nc([C@H](CC(N)=O)NC[C@H](N)C(N)=O)nc1C(=O)N[C@H](C(=O)N[C@H](C)[C@@H](O)[C@H](C)C(=O)N[C@H](C(=O)NCCc1nc(-c2nc(C(=O)NCCCNCCCCN)cs2)cs1)[C@@H](C)O)[C@@H](O[C@@H]1O[C@@H](CO)[C@@H](O)[C@H](O)[C@@H]1O[C@@H]1O[C@H](CO)[C@@H](O)[C@H](OC(N)=O)[C@@H]1O)c1cnc[nH]1`, the “fold change (FC)” value in data set [22] is listed as 6.
Take `CC(=O)N(C)CCCCN(CC(=O)NCCCCNCCCNC(=O)c1csc(-c2csc(CCNC(=O)[C@@H](NC(=O)[C@H](C)[C@@H](O)[C@H](C)NC(=O)[C@H](NC(=O)c3nc([C@@H](CC(N)=O)NC[C@@H](N)C(N)=O)nc(N)c3C)[C@H](O[C@@H]3O[C@@H](CO)[C@@H](O)[C@@H](O)[C@@H]3O[C@H]3O[C@H](CO)[C@@H](O)[C@H](OC(N)=O)[C@H]3O)c3cnc[nH]3)[C@H](C)O)n2)n1)C(=O)[C@H]1CCCN1C(=O)[C@H]1CCCN1C(C)=O`: the outcome in data set [23], in data set [8] and in data set [24] was inactive.

The values are drawn from ChEMBL document CHEMBL4616726, “Optimization of the Linker Domain in a Dimeric Compound that Degrades an r(CUG) Repeat Expansion in Cells” (J Med Chem, 2020).
